# Results: patent US12558007B2 (priority 2016, dated 2026)
# Target: acetylcholinesterase enzyme (Homo sapiens, UniProt P22303)
# Experiment: Electrochemical sensor with acetylthiocholine reservoir in buffer containing acetylcholinesterase; inhibitor added, then sensor moved to fresh buffer
# Type: biochemical
# Settings: 20 mM PBS, pH 7.4, 1 U/mL acetylcholinesterase, FIG. 13
# Method: In this example, a buffer was created to simulate endogenous cholinesterase activity in the interstitial fluid of a test subject. A sensor similar to that described in Example 6 was created with 100 nL of 1 M acetylthiocholine in the reactant reservoir. The sensor was placed in a buffer solution of 20 mM PBS, pH 7.4, and 1 U/mL of acetylcholinesterase enzyme to simulate a test subject. A reversible acetylcholinesterase inhibitor (Neostigmine Bromide) was then added to the buffer solution to simulate an organophosphate. The sensor was then removed from the buffer solution containing the inhibitor and placed in fresh buffer solution.
# Sequence of acetylcholinesterase enzyme (P22303 32-614, species assumed): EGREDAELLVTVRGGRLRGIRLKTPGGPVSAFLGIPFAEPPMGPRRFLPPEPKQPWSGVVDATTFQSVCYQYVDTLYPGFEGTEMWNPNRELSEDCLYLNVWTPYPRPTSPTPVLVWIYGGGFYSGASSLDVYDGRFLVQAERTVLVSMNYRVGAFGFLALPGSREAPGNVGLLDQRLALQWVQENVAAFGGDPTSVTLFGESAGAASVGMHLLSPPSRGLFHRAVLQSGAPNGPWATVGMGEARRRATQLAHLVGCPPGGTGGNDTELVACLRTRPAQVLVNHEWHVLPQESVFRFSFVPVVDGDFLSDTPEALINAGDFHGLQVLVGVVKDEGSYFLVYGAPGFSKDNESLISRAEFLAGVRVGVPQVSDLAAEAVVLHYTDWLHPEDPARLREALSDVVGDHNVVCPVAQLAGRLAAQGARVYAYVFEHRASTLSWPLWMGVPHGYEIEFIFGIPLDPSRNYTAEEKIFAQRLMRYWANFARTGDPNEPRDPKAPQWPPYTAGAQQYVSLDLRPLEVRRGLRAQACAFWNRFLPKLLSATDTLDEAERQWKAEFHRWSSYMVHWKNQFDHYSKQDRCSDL
smiles,measurement,setting,value
CN(C)C(=O)Oc1cccc([N+](C)(C)C)c1 [Neostigmine Bromide],"sensor signal created by acetylcholinesterase interacting with acetylthiocholine, after addition of the inhibitor",100 nL of 1 M acetylthiocholine in reservoir,fell off after the addition of the inhibitor
same,sensor signal after sensor removed from inhibitor solution and placed in fresh buffer (reversibility),fresh buffer,the signal rebounded
